According to patent publication US20240374573A1, “IMIDAZOLE CONTAINING COMPOUNDS, DERIVATIVES THEREFORE, AND USES THEREOF” (AglaeaPharma Inc., priority 2023, published 2024):

Legend:
[1] = biological target: T1, α2AAR (α2A-adrenergic receptor) (Homo sapiens, UniProt P08913); test: α2AAR FLIPR assay (agonist activity); assay type: cell-based; settings: FLIPR, α2AAR cell line hosted in HEK293 cells; read-out: α2A agonist activity (EC50)
T1 construct: expressed in transfected cells; host or cells: HEK293
T1 sequence (P08913 1-465): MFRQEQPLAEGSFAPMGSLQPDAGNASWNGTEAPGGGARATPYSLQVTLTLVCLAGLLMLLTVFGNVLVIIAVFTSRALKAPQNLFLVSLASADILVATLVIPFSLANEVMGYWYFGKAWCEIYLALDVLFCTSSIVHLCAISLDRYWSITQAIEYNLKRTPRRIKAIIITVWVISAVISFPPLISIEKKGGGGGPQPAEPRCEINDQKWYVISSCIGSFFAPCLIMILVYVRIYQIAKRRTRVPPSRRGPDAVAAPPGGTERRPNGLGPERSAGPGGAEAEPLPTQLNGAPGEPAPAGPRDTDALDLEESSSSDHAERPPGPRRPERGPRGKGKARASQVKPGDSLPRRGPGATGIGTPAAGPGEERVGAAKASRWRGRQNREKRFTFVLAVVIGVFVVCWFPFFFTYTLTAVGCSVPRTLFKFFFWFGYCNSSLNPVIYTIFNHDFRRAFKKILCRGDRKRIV
Procedure, shortened: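 HEK293 cells expressing α2AAR loaded with Fluo-4 Direct plus probenecid for 50 min at 37° C and 10 min at room temperature, then treated with serially diluted compounds.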

α2AAR = biological target: T2, α2AAR (Homo sapiens, UniProt P08913); test: α2AAR binding assay ([3H]-RX 821002 radioligand); settings: [3H]-RX 821002 0.5 nM, HEK293 membranes; read-out: α2A affinity (Ki)
T2 construct: host or cells: HEK293 (membranes)
T2 sequence (P08913 1-465): T1 sequence (P08913 1-465)

[2] = biological target: P-glycoprotein (P-gp, MDR1) (Homo sapiens, UniProt P08183); test: in vitro; settings: dog, MDCK-MDR1, pH 7.4
Experimental: MDR1-MDCK II cells (obtained from Piet Borst at the Netherlands Cancer Institute) were seeded onto Polycarbonate membranes (PC) in 96-well insert systems at 3.33×10^5 cells/mL until to 4-7 days for confluent cell monolayer formation.
Selected α2AR agonist from table 3s were diluted with the transport buffer (HBSS with 10.0 mM Hepes, pH7.4) from DMSO stock solution to a concentration of 2 μM (DMSO<1%) and applied to the apical or basolateral side of the cell monolayer. […] Permeation of the test compounds from A to B direction and/or B to A direction was determined in duplicate. Digoxin was tested at 10.0 μM from A to B direction and B to A direction in duplicate. The plate was incubated for 2.5 hours in CO2 incubator at 37.0±1.0° C., with 5.0% CO2 at saturated humidity without shaking. In addition, the efflux ratio of each compound was also determined. Test and reference compounds were quantified by LC/MS/MS analysis based on the peak area ratio of analyte/IS.
After transport assay, lucifer yellow rejection assay was applied to determine the cell monolayer integrity. Buffers were removed from both apical and basolateral chambers, followed by the addition of 75 μL of 100 μM lucifer yellow in transport buffer and 250 μL transport buffer in apical and basolateral chambers, respectively. The plate was incubated for 30 minutes at 37.0° C. with 5.0% CO2 and 95.0% relative humidity without shaking. After 30 minutes incubation, 20 μL of lucifer yellow samples were taken from the apical sides, followed by the addition of 60 μL of transport Buffer. And then 80 μL of lucifer yellow samples were taken from the basolateral sides. The relative fluorescence unit (RFU) of lucifer yellow was measured at 425/528 nm (excitation/emission) with an Envision plate reader.
The apparent permeability coefficient Papp (cm/s) was calculated using the equation: […]
wherein dCr/dt is the cumulative concentration of compound in the receiver chamber as a function of time (μM/s); Vr is the solution volume in the receiver chamber (0.075 mL on the apical side, 0.25 mL on the basolateral side); A is the surface area for the transport, i.e. 0.143 cm2 for the area of the monolayer; and C0 is the initial concentration in the donor chamber (μM).
The efflux ratio was calculated using the equation: […]

P-glycoprotein (P-gp, MDR1), sequence (P08183 whole entry): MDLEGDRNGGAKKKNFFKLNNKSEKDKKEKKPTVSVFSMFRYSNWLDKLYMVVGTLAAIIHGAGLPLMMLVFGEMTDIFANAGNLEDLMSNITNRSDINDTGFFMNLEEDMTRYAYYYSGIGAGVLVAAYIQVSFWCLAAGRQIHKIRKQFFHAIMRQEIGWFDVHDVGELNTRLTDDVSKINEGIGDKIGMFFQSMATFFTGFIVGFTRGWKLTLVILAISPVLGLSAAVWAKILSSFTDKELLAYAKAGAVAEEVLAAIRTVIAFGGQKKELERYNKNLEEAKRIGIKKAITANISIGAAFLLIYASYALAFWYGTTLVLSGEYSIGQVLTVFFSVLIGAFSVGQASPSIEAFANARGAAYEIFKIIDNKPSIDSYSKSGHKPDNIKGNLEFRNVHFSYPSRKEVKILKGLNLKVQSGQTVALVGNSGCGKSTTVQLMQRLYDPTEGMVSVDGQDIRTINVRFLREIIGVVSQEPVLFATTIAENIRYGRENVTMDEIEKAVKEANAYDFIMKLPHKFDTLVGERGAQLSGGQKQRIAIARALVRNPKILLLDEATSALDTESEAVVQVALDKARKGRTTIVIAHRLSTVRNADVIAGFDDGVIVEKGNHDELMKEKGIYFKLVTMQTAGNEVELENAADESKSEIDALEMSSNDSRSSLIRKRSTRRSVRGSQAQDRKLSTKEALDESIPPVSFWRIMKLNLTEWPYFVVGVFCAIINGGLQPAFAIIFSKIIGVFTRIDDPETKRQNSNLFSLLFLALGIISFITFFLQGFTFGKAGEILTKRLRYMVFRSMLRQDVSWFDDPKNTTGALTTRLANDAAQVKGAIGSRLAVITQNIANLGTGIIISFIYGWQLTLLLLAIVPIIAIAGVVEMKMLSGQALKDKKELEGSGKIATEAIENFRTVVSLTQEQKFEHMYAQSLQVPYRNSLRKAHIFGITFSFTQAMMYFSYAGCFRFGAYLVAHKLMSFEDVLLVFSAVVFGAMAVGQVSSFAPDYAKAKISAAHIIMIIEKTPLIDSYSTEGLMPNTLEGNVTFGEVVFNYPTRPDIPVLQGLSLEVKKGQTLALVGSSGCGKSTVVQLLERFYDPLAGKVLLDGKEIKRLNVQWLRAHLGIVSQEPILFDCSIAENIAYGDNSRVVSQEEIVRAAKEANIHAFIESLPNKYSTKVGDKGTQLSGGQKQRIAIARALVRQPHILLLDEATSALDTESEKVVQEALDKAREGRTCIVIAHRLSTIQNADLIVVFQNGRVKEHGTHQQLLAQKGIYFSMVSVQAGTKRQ

Row | EC50 [1] [nM] | Ki (α2AAR) [nM] | efflux ratio at 2.5 h, 2 μM [2] | SMILES
1 | < 10 | < 10 | 14.8 | Cc1cccc(C(Cc2ccc(NC(=O)CC3CCOCC3)cc2)c2c[nH]cn2)c1C (stereo not drawn) [compound 165]
2 | 10 to 50 | 10 to 50 | 149 | Cc1cccc(C(c2cccc(NC(=O)Cc3ccncc3)c2)c2c[nH]cn2)c1C (stereo not drawn) [compound 103]
3 | < 10 | < 10 | 2.86 | Cc1cccc(C(Cc2ccc(C(N)=O)c(F)c2)c2c[nH]cn2)c1C (single isomer, unassigned) [156-B]
4 | 10 to 50 | 10 to 50 | 26.4 | Cc1cccc(C(c2c[nH]cn2)c2cccc(OCCNS(C)(=O)=O)c2F)c1C (stereo not drawn) [compound 55]
5 | < 10 | < 10 | 3.21 | Cc1cccc(C(Cc2ccc(C(=O)N(C)C)cc2)c2c[nH]cn2)c1C (stereo not drawn) [compound 216]
6 | 10 to 50 | < 10 | 27.7 | Cc1cccc(C(Cc2ccc(NC(=O)C3COC3)cc2)c2c[nH]cn2)c1C (stereo not drawn) [compound 200]
7 | 10 to 50 | 10 to 50 | 104 | Cc1cccc(C(c2cccc(NC(=O)CCC3CCOCC3)c2)c2c[nH]cn2)c1C (stereo not drawn) [compound 101]
8 | 10 to 50 | 10 to 50 | 29 | CCS(=O)(=O)Nc1cccc(C(c2c[nH]cn2)c2cccc(C)c2C)c1 (stereo not drawn) [compound 67]
9 | < 10 | < 10 | 17.5 | Cc1cccc(C(Cc2ccc(S(N)(=O)=O)cc2)c2c[nH]cn2)c1C (stereo not drawn) [compound 217]
10 | 10 to 50 | 10 to 50 | 24.3 | Cc1cccc(C(c2cccc(NC(=O)OC3CCOC3)c2)c2c[nH]cn2)c1C (stereo not drawn) [compound 64]
11 | 10 to 50 | < 10 | 23.7 | Cc1cccc(C(Cc2ccc(NS(=O)(=O)C3CCOCC3)cc2)c2c[nH]cn2)c1C (stereo not drawn) [compound 158]
12 | < 10 | < 10 | 4.92 | COc1cc(CC(c2c[nH]cn2)c2cccc(C)c2C)ccc1C(=O)NC1CCOCC1 (stereo not drawn) [compound 213]
13 | 10 to 50 | < 10 | 72.2 | Cc1cccc(C(Cc2cccc(NC(=O)CC3CCOCC3)c2)c2c[nH]cn2)c1C (stereo not drawn) [compound 108]
14 | 10 to 50 | 10 to 50 | 94.8 | Cc1cccc(C(c2cccc(NC(=O)NC3CC3)c2)c2c[nH]cn2)c1C (stereo not drawn) [compound 109]
15 | < 10 | < 10 | 26.9 | Cc1cccc(C(Cc2ccc(C(=O)NO)cc2)c2c[nH]cn2)c1C (stereo not drawn) [compound 219]
16 | 10 to 50 | 10 to 50 | 3.38 | Cc1cccc(C(Cc2ccc(C(=O)NC3CCOCC3)nc2)c2c[nH]cn2)c1C (stereo not drawn) [compound 186]
17 | 10 to 50 | < 10 | 62.5 | Cc1cccc(C(c2cccc(NC(=O)CN3CCOCC3)c2)c2c[nH]cn2)c1C (stereo not drawn) [compound 81]
18 | < 10 | < 10 | 30.9 | Cc1cccc(C(c2cccc(C(=O)NC3CCOCC3)c2)c2c[nH]cn2)c1C (single isomer, unassigned) [121-B]

Row | EC50 [1] [nM] | Ki (α2AAR) [nM] | efflux ratio at 2.5 h, 2 μM [2] | SMILES
19 | < 10 | < 10 | 8.88 | Cc1cccc(C(Cc2ccc(S(N)(=O)=O)c(F)c2)c2c[nH]cn2)c1C (stereo not drawn) [compound 208]
20 | 10 to 50 | < 10 | 112 | Cc1cccc(C(c2cccc(NC(=O)CC3CCOCC3)c2)c2c[nH]cn2)c1C (stereo not drawn) [compound 80]
21 | 10 to 50 | < 10 | 7.85 | Cc1cccc(C(c2c[nH]cn2)c2cccc(C(=O)NCC3CCOCC3)c2O)c1C (stereo not drawn) [compound 138]
22 | 10 to 50 | < 10 | 2.6 | Cc1cccc(C(Cc2ccc(C(=O)NC3CCOCC3)c(F)c2)c2c[nH]cn2)c1C (stereo not drawn) [compound 187]
23 | 10 to 50 | < 10 | 65.8 | Cc1cccc(C(c2cccc(S(=O)(=O)NCC3CCOCC3)c2)c2c[nH]cn2)c1C (stereo not drawn) [compound 105]
24 | 10 to 50 | 10 to 50 | 141 | Cc1cccc(C(c2cccc(C(=O)NCC3CCC(O)CC3)c2)c2c[nH]cn2)c1C (stereo not drawn) [compound 99]
25 | 10 to 50 | 10 to 50 | 96.1 | Cc1cccc(C(c2cccc(NC(=O)CC3CCOC3)c2)c2c[nH]cn2)c1C (stereo not drawn) [compound 73]
26 | 10 to 50 | 10 to 50 | 33.2 | Cc1cccc(C(c2cccc(C(N)=O)c2)c2c[nH]cn2)c1C (single isomer, unassigned) [5-B]
27 | 10 to 50 | < 10 | 4.91 | CC(=O)Nc1ccc(CC(c2c[nH]cn2)c2cccc(C)c2C)cc1 (stereo not drawn) [compound 190]
28 | < 10 | < 10 | 4.77 | CNC(=O)c1ccc(CC(c2c[nH]cn2)c2cccc(C)c2C)cc1 (stereo not drawn) [compound 215]
29 | 10 to 50 | < 10 | 56.1 | Cc1cccc(C(Cc2ccc(NC(=O)NC3COC3)cc2)c2c[nH]cn2)c1C (stereo not drawn) [compound 214]
30 | 10 to 50 | 50 to 250 | 51 | CONC(=O)c1cccc(C(c2c[nH]cn2)c2cccc(C)c2C)c1 (single isomer, unassigned) [1-B]
31 | 10 to 50 | < 10 | 14 | Cc1cccc(C(c2c[nH]cn2)c2cccc(C(N)=O)c2F)c1C (single isomer, unassigned) [45-B]
32 | 10 to 50 | 10 to 50 | 173 | Cc1cccc(C(c2cccc(NC(=O)NC3CCOCC3)c2)c2c[nH]cn2)c1C (stereo not drawn) [compound 111]
33 | 10 to 50 | < 10 | 61.8 | Cc1cccc(C(Cc2ccc(NC(=O)NC3CCOCC3)cc2)c2c[nH]cn2)c1C (stereo not drawn) [compound 205]
34 | 10 to 50 | < 10 | 9.08 | Cc1cccc(C(Cc2ccc(C(N)=O)cc2)c2c[nH]cn2)c1C (stereo not drawn) [compound 163]
35 | 50 to 250 | 10 to 50 | 93.5 | Cc1cccc(C(c2cccc(NS(=O)(=O)CCC#N)c2)c2c[nH]cn2)c1C (stereo not drawn) [compound 74]
36 | 10 to 50 | < 10 | 22 | CCc1cscc1C(c1cccc(NS(C)(=O)=O)c1)c1c[nH]cn1 (stereo not drawn) [compound 401]
